In US20240368120A1 (Terns Pharmaceuticals, Inc., priority 2023, published 2024):

Molecular target: T1, human GLP-1R receptor (Homo sapiens, UniProt P43220)
T1 construct: expressed in transfected cells
Assay: GLP-1R low expression cell assay (cAMP TR-FRET, CHO-K1_hGLP-1Rlow_clone10 cells)
Assay type: cell-based
Details: for EC50: cAMP TR-FRET, 30 min at 25° C.
Summary of the method: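 Readout is cAMP TR-FRET after 30 min compound stimulation at 25 °C of a low-GLP-1R-expressing CHO-K1 clone (1,000 cells/well), with 10-point 3-fold serial dilutions. Percent activation versus a control GLP-1 peptide, from duplicates, was Hill-fitted to give EC50.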

[1] = maximum activation relative to control GLP-1 peptide agonist

T1 sequence (P43220 24-463): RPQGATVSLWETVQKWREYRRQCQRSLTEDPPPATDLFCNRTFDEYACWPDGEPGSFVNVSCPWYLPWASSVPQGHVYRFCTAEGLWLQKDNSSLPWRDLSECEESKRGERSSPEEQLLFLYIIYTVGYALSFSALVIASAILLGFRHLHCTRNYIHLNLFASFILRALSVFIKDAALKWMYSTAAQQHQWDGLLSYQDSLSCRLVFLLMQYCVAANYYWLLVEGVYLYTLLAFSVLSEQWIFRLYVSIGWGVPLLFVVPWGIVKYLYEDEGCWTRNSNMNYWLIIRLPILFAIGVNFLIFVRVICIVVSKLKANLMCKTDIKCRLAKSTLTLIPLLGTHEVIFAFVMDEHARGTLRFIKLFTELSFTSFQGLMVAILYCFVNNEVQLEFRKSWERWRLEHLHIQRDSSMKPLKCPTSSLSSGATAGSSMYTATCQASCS

| EC50 [nM] | Emax [1] [%] | GLP-1R Low Expression Cell Assay Emax (%) [1] | Structure (SMILES) |
| --- | --- | --- | --- |
| 10 to 100 | > 85 | – | Cn1c(CN2CCC(c3ncc(F)c(OCc4ccc(Cl)cc4F)n3)CC2)nc2c(OC(F)F)cc(C(=O)O)cc21 [Compound 356, 2-((4-(4-((4-Chloro-2-fluorobenzyl)oxy)-5-fluoropyrimidin-2-yl)piperidin-1-yl)methyl)-4-(difluoromethoxy)-1-methyl-1H-benzo[d]imidazole-6-carboxylic acid] |
| < 10 | > 85 | – | Cn1c(CN2CCC(c3cccc(OCc4ccc(Cl)cc4F)n3)CC2)nc2c(OCC3CC3)cc(C(=O)O)cc21 [Compound 357, 2-((4-(6-((4-Chloro-2-fluorobenzyl)oxy)pyridin-2-yl)piperidin-1-yl)methyl)-4-(cyclopropylmethoxy)-1-methyl-1H-benzo[d]imidazole-6-carboxylic acid] |
| – | > 85 | – | CCOc1cc(C(=O)O)cc2c1nc(CN1CCC(c3cccc(OCc4ccc(Cl)cc4F)n3)CC1)n2C [Compound 358, 2-((4-(6-((4-Chloro-2-fluorobenzyl)oxy)pyridin-2-yl)piperidin-1-yl)methyl)-4-ethoxy-1-methyl-1H-benzo[d]imidazole-6-carboxylic acid] |
| < 10 | > 85 | – | CC(F)Oc1cc(C(=O)O)cc2c1nc(CN1CCC(c3cccc(OCc4ccc(Cl)cc4F)n3)CC1)n2C (centres unmarked) [Compound 359, 2-((4-(6-((4-Chloro-2-fluorobenzyl)oxy)pyridin-2-yl)piperidin-1-yl)methyl)-4-(1-fluoroethoxy)-1-methyl-1H-benzo[d]imidazole-6-carboxylic acid] |
| > 1000 | 50 to 85 | – | Cn1c(CN2CCC(c3cccc(COc4ccc(Cl)cc4F)n3)C2)nc2c(OC(F)F)cc(C(=O)O)cc21 (centres unmarked) [Compound 362, 2-((3-(6-((4-Chloro-2-fluorophenoxy)methyl)pyridin-2-yl)pyrrolidin-1-yl)methyl)-4-(difluoromethoxy)-1-methyl-1H-benzo[d]imidazole-6-carboxylic acid] |
| < 10 | > 85 | – | COc1cc(C(=O)O)cc2c1nc(N(C)[C@H]1CC[C@H](c3cccc(OCc4ccc(Cl)cc4F)n3)CC1)n2C [Compound 363, 2-(((1r,4r)-4-(6-((4-Chloro-2-fluorobenzyl)oxy)pyridin-2-yl)cyclohexyl)(methyl)amino)-4-methoxy-1-methyl-1H-benzo[d]imidazole-6-carboxylic acid] |
| 10 to 100 | > 85 | – | Cn1c(CN2CCC(c3cccnc3OCc3ccc(Cl)cc3F)CC2)nc2c(OC(F)F)cc(C(=O)O)cc21 [Compound 364, 2-((4-(2-((4-Chloro-2-fluorobenzyl)oxy)pyridin-3-yl)piperidin-1-yl)methyl)-4-(difluoromethoxy)-1-methyl-1H-benzo[d]imidazole-6-carboxylic acid] |
| 10 to 100 | > 85 | – | Cn1c(CN2CCC(c3cccc(OCc4ccc(C5CC5)cc4F)n3)CC2)nc2c(OC(F)F)cc(C(=O)O)cc21 [Compound 365, 2-((4-(6-((4-Cyclopropyl-2-fluorobenzyl)oxy)pyridin-2-yl)piperidin-1-yl)methyl)-4-(difluoromethoxy)-1-methyl-1H-benzo[d]imidazole-6-carboxylic acid] |
| < 10 | > 85 | – | Cn1c(CN2CCC(c3cccc(OCc4cc(F)c(C#N)cc4F)n3)CC2)nc2c(OC(F)F)cc(C(=O)O)cc21 [Compound 366, 2-((4-(6-((4-Cyano-2,5-difluorobenzyl)oxy)pyridin-2-yl)piperidin-1-yl)methyl)-4-(difluoromethoxy)-1-methyl-1H-benzo[d]imidazole-6-carboxylic acid] |
| > 1000 | > 85 | – | Cn1c(Cc2ccc(Oc3cccc(COc4ccc(Cl)cc4F)n3)cc2F)nc2c(OC(F)F)cc(C(=O)O)cc21 [Compound 367, 2-(4-((6-((4-Chloro-2-fluorophenoxy)methyl)pyridin-2-yl)oxy)-2-fluorobenzyl)-4-(difluoromethoxy)-1-methyl-1H-benzo[d]imidazole-6-carboxylic acid] |
| > 1000 | 25 to 50 | – | Cn1c(CN2CCC(c3cccc4c3O[C@H](c3ccc(Cl)cc3F)CC4)CC2)nc2c(OC(F)F)cc(C(=O)O)cc21 [Compound 368, (S)-2-((4-(2-(4-Chloro-2-fluorophenyl)chroman-8-yl)piperidin-1-yl)methyl)-4-(difluoromethoxy)-1-methyl-1H-benzo[d]imidazole-6-carboxylic acid] |
| > 1000 | < 25 | – | Cn1c(CN2CCC(c3cccc4c3O[C@@H](c3ccc(Cl)cc3F)CC4)CC2)nc2c(OC(F)F)cc(C(=O)O)cc21 [Compound 369, (R)-2-((4-(2-(4-Chloro-2-fluorophenyl)chroman-8-yl)piperidin-1-yl)methyl)-4-(difluoromethoxy)-1-methyl-1H-benzo[d]imidazole-6-carboxylic acid] |
| 100 to 1000 | > 85 | – | Cn1c(CN2CCC(c3cccc(OCc4ccc(Cl)cc4F)n3)CC2)nc2c(OC(F)F)cc(-c3nsc(=O)[nH]3)cc21 [Compound 370, 3-(2-((4-(6-((4-Chloro-2-fluorobenzyl)oxy)pyridin-2-yl)piperidin-1-yl)methyl)-4-(difluoromethoxy)-1-methyl-1H-benzo[d]imidazol-6-yl)-1,2,4-thiadiazol-5 (4H)-one] |
| > 1000 | > 85 | – | Cn1c(N[C@H]2CC[C@H](c3cccc(OCc4ccc(Cl)cc4F)n3)CC2)nc2c(OC(F)F)cc(C(=O)O)cc21 [Compound 371, 2-(((1r,4r)-4-(6-((4-Chloro-2-fluorobenzyl)oxy)pyridin-2-yl)cyclohexyl)amino)-4-(difluoromethoxy)-1-methyl-1H-benzo[d]imidazole-6-carboxylic acid] |
| < 10 | > 85 | – | [2H]C([2H])([2H])N(c1nc2c(OC(F)F)cc(C(=O)O)cc2n1C)[C@H]1CC[C@H](c2cccc(OCc3ccc(Cl)cc3F)n2)CC1 [Compound 372, 2-(((1r,4r)-4-(6-((4-Chloro-2-fluorobenzyl)oxy)pyridin-2-yl)cyclohexyl)(methyl-d3)amino)-4-(difluoromethoxy)-1-methyl-1H-benzo[d]imidazole-6-carboxylic acid] |
| > 1000 | < 25 | – | Cn1c(CN2CCC(c3ccc4c(c3)N(Cc3ccc(Cl)cc3F)CCO4)CC2)nc2c(OC(F)F)cc(C(=O)O)cc21 [Compound 373, 2-((4-(4-(4-Chloro-2-fluorobenzyl)-3,4-dihydro-2H-benzo[b][1,4]oxazin-6-yl)piperidin-1-yl)methyl)-4-(difluoromethoxy)-1-methyl-1H-benzo[d]imidazole-6-carboxylic acid] |
| 100 to 1000 | > 85 | – | Cn1c(CN2CCC(c3cncc(OCc4ccc(Cl)cc4F)n3)CC2)nc2c(OC(F)F)cc(C(=O)O)cc21 [Compound 374, 2-((4-(6-((4-Chloro-2-fluorobenzyl)oxy)pyrazin-2-yl)piperidin-1-yl)methyl)-4-(difluoromethoxy)-1-methyl-1H-benzo[d]imidazole-6-carboxylic acid] |
| 100 to 1000 | > 85 | – | Cn1c(CN2CCC(c3nc(OCc4ccc(Cl)cc4F)ncc3F)CC2)nc2c(OC(F)F)cc(C(=O)O)cc21 [Compound 375, 2-((4-(2-((4-Chloro-2-fluorobenzyl)oxy)-5-fluoropyrimidin-4-yl)piperidin-1-yl)methyl)-4-(difluoromethoxy)-1-methyl-1H-benzo[d]imidazole-6-carboxylic acid] |
| < 10 | > 85 | – | N#Cc1ccc(COc2cccc(C3CCN(Cc4nc5c(O)c(C(=O)O)ccc5n4C[C@@H]4CCO4)CC3)n2)c(F)c1 [Compound 376, (S)-2-((4-(6-((4-Cyano-2-fluorobenzyl)oxy)pyridin-2-yl)piperidin-1-yl)methyl)-4-hydroxy-1-(oxetan-2-ylmethyl)-1H-benzo[d]imidazole-5-carboxylic acid] |
| < 10 | – | ++++ (Emax is >85%) | N#Cc1ccc(COc2cccc(C3CCN(Cc4nc5ccc(C(=O)O)c(O)c5n4C[C@@H]4CCO4)CC3)n2)c(F)c1 [Compound 377, (S)-2-((4-(6-((4-Cyano-2-fluorobenzyl)oxy)pyridin-2-yl)piperidin-1-yl)methyl)-7-hydroxy-1-(oxetan-2-ylmethyl)-1H-benzo[d]imidazole-6-carboxylic acid] |
| 10 to 100 | > 85 | – | N#Cc1ccc(COc2cccc(C3CCN(Cc4nc5cnc(C(=O)O)cc5n4C[C@@H]4CCO4)CC3)n2)c(F)c1 [Compound 378, (S)-2-((4-(6-((4-Cyano-2-fluorobenzyl)oxy)pyridin-2-yl)piperidin-1-yl)methyl)-1-(oxetan-2-ylmethyl)-1H-imidazo[4,5-c]pyridine-6-carboxylic acid] |
| 10 to 100 | > 85 | – | COc1nc(C(=O)O)cc2c1nc(CN1CCC(c3cccc(OCc4ccc(Cl)cc4F)n3)CC1)n2C [Compound 380, 2-((4-(6-((4-Chloro-2-fluorobenzyl)oxy)pyridin-2-yl)piperidin-1-yl)methyl)-4-methoxy-1-methyl-1H-imidazo[4,5-c]pyridine-6-carboxylic acid] |
| < 10 | > 85 | – | [2H]C([2H])(C)Oc1cc(C(=O)O)cc2c1nc(C([2H])([2H])N1CCC(c3cccc(OC([2H])([2H])c4ccc(Cl)cc4F)n3)CC1)n2C [Compound 381, 2-((4-(6-((4-Chloro-2-fluorophenyl)methoxy-d2)pyridin-2-yl)piperidin-1-yl)methyl-d2)-4-(ethoxy-1,1-d2)-1-methyl-1H-benzo[d]imidazole-6-carboxylic acid] |

| Structure (SMILES) | EC50 [nM] | Emax [1] [%] | GLP-1R Low Expression Cell Assay Emax (%) [1] |
| --- | --- | --- | --- |
| Cn1c(CN2CCC(c3cccc(OCc4ccc(Cl)cc4F)n3)CC2)nc2c(O[C@H]3C[C@@H](F)C3)cc(C(=O)O)cc21 [Compound 379, 2-((4-(6-((4-Chloro-2-fluorobenzyl)oxy)pyridin-2-yl)piperidin-1-yl)methyl)-4-((1s,3s)-3-fluorocyclobutoxy)-1-methyl-1H-benzo[d]imidazole-6-carboxylic acid] | 10 to 100 | > 85 | – |
